Like-named read-outs stand apart in the source and are kept apart here.
Legend:
[1] = tested on: SOS umuC; conditions: cited from earlier work
[2] = tested on: RAD54 promoter-GFP reporter (pGen001); conditions: for GSA genotoxicity result: GenT01 yeast, overnight at 25° C., 2% DMSO diluent, no S9
[3] = tested on: bacteria; conditions: cited from earlier work
[4] = in vivo; cited from earlier work
[5] = other genotoxicity tests and cancer studies; cited from earlier work
[6] = tested on: yeast strain GenT01 (FF18984); test: GreenScreen assay (GSA), cytotoxicity: final cell density by absorbance; conditions: for Maximum Concentration (% v/v), suggested maximum tolerable solvent concentration: solvent in GSA test samples, toxic at higher concentrations
Description: The following standard protocol was followed. A 1 mM stock of the test chemical was prepared in 2% v/v aqueous DMSO, and used to make 2 identical dilution series across the microplate and a ‘control’ (see below). To achieve this, 150 microlitres of the test chemical solution were put into 2 microplate wells. Each sample was serially diluted by transferring 75 microlitres into 75 microlitres of 2% DMSO, mixing, and then taking 75 microlitres out and into the next well. This produced 9 serial dilutions of 75 microlitres each.
75 microlitres of the yeast suspension were added to each well of the diluted chemical: GenT01 to one series and GenC01 to the second, and to appropriate standards and controls. After the plates were filled, they were sealed using either a gas permeable membrane (Breath-easy, Diversified Biotech, USA) or a plastic lid, and then incubated without shaking, overnight at 25° C.
Following overnight incubation, fluorescence and absorbance data were collected from the microplates. […] Absorbance was measured through a 620 nm filter in both instruments. […] Fluorescence data were divided by absorbance data to give ‘brightness units’, the measure of average GFP induction per cell. […] In this way, one can distinguish between a small number of highly fluorescent cells and a large number of weakly fluorescent cells. In order to correct for induced cellular autofluorescence and intrinsic compound fluorescence, the brightness values for the GenC01 strain were subtracted from those of GenT01. This makes visual assessment of the data more reliable.
The cytotoxicity threshold is set at 80% of the cell density reached by the untreated control cells.
Table 12 lists chemicals/solvents that are often used with test samples, to promote dissolution etc. […] If these chemicals are used to dissolve compound stock solutions, they should also be included in the diluent used to make the compound dilution series. […] Interference of DMSO, a free radical scavenger, in the recombinogenic properties of several oxidising agents has previously been reported.

[7] = tested on: RNR3 regulatory element-GFP reporter; test: RNR3-GFP reporter microplate assay (pGenRNR3); type: cell-based, Saccharomyces cerevisiae; conditions: yeast test strain transformed with pGenRNR3
Text: In addition to the RAD54 vectors described in the previous Examples, the inventors constructed an FF18984 reporter strain containing a replicative plasmid harbouring an RNR regulatory element. The vectors pGenRNR2 or pGenRNR3 are shown in FIGS. 24 and 25, respectively, and contain the upstream non-coding DNA sequence of the RNR2 gene or RNR3 gene fused to the yeast-enhanced Aequorea victoria GFP gene. A control FF18984 strain containing an identical plasmid except that 2 base pairs have been removed at the start of the GFP gene, such that no GFP is made, was also examined.
In order to test the brightness of the reporter for RNR3 constructs, similar methodology was used as for RAD54 constructs, as described in the previous Examples, but using instead pGENRNR3.

[8] = tested on: SOS lux; conditions: S9 −; cited from earlier work
[9] = requires S9 metabolic activation

In the case of `N.N.[Cl][Pt][Cl]` [CISPLATIN, cisplatin], the “SOS UMUC ASSAY (M), LEC” value ([1]; S9 −) is listed as 9e-07 M and the “GSA (M), lowest effective concentration (LEC)” value (shortened to “GSA (M)”) ([2]; S9 −) is listed as 6.2e-05 M.

In the case of `C=CCc1ccc2c(c1)OCO2` [safrole], the Ames test result [3] is given as “not detectable” and the “cancer data / carcinogenicity” value [4] is given as “carcinogens”.

For tritolyl phosphate, the “corresponding data from other tests” value [5] is listed as “no corresponding positive data”.

For `Nc1ccccc1` [aniline], the Ames test result [3] is listed as “not detectable”, the Ames test result ([3]; with and without S9) is listed as “negative” and the “cancer data / carcinogenicity” value [4] is listed as “carcinogens”. For the same molecule, the GSA genotoxicity result [2] was “negative”.

For `Nc1ccc2cc3ccccc3cc2c1` [2-aminoanthracene], the GSA genotoxicity result [2] was “negative”.

With `Clc1ccc(COC(Cn2ccnc2)c2ccc(Cl)cc2Cl)cc1` (stereo not shown) [econazole] the GSA genotoxicity result [2] was “responds”.

For `CCOC(N)=O` [urethane], the Ames test result [3] is given as “not detectable” and the “cancer data / carcinogenicity” value [4] is given as “carcinogens”.

With `Cc1c2ccncc2c(C)c2c1[nH]c1ccccc12` [ellipticine] the GSA genotoxicity result [2] was “responds”.

With `Nc1c2ccccc2nc2ccccc12` [9-aminoacridine] the GSA genotoxicity result [2] was “negative”.

For `C[S+](C)[O-]` [Dimethylsulfoxide], the “Maximum Concentration (% v/v), suggested maximum tolerable solvent concentration” value (from here on “Maximum Concentration (% v/v)”) [6] was 5 % v/v.

For `C[n+]1ccc(-c2cc[n+](C)cc2)cc1` [methyl viologen], the GSA genotoxicity result [2] was “induced”.

For `CCn1cc(C(=O)O)c(=O)c2ccc(C)nc21` [NALIDIXIC ACID], the “GSA (M)” value ([2]; S9 −) was 1.6e-06 M.

For `c1ccc2c(c1)cc1ccc3cccc4ccc2c1c34` [BENZO[A]PYRENE, benzo[a]pyrene], the GSA genotoxicity result [2] was “positive”.

With `COc1cc([C@@H]2c3cc4c(cc3[C@@H](O[C@@H]3O[C@@H]5CO[C@@H](C)O[C@H]5[C@H](O)[C@H]3O)[C@H]3COC(=O)[C@H]23)OCO4)cc(OC)c1O` [etoposide] the GSA genotoxicity result [2] was “responds”.

For `Nc1ccc(Oc2ccc(N)cc2)cc1` [4,4-oxydianiline], the GSA genotoxicity result [2] was “negative”.

For bleomycin, the GSA genotoxicity result [2] was “induced”.

In the case of `COc1cc2c(c(OC)c1OC)-c1ccc(OC)c(=O)cc1[C@@H](NC(C)=O)CC2` [colchicine], the GSA genotoxicity result [2] is reported as “responds”.

In the case of `CCOS(C)(=O)=O` [EMS, Ethyl methanesulfonate], the “fluorescence induction by the reporter” value [7] is reported as “increases with increasing concentration”.

For `CC(O)CCl` (stereo not shown) [1-Chloro-2-propanol], the “Maximum Concentration (% v/v)” value [6] was 2 % v/v.

For `CCO` [Ethanol], the “Maximum Concentration (% v/v)” value [6] was 2 % v/v.

For `CNNC` [1,2-dimethylhydrazine], the GSA genotoxicity result [2] was “induced” and the “fluorescence induction by the reporter” value [7] was “increases with increasing concentration”.

With `CCCCC(CC)COC(=O)c1ccccc1C(=O)OCC(CC)CCCC` (stereo not shown) [phthalic acid bis(2-ethylhexyl) ester] the GSA genotoxicity result [2] was “induced”.

For phleomycin, the GSA genotoxicity result [2] was “induced”.

In the case of `CN(C)CCN(Cc1cccs1)c1ccccn1` [methapyraline], the GSA genotoxicity result [2] is reported as “induced”.

For `Nc1cc([N+](=O)[O-])ccc1O` [2-amino-4-nitrophenol], the Ames test result [3, 9] is given as “positive” and the GSA genotoxicity result [2] is given as “positive”.

In the case of `CO[C@@]12[C@H](COC(N)=O)C3=C(C(=O)C(C)=C(N)C3=O)N1C[C@@H]1N[C@@H]12` [MITOMYCIN C, mitomycin C], the “SOS LUX ASSAY (M), LEC” value [8] is listed as 4.7e-08 M and the “SOS UMUC ASSAY (M), LEC” value ([1]; S9 −) is listed as 1e-08 M.

For `ClC(Cl)(Cl)Cl` [Carbon tetrachloride], the “Maximum Concentration (% v/v)” value [6] was 2 % v/v.

In the case of `Cc1cc2nc3ccc(N(C)C)cc3nc2cc1N.Cl` [Neutral Red], the Ames test result [3] is listed as “positive” and the GSA genotoxicity result [2] is listed as “positive”.

With `CC(=O)Nc1ccc2c(c1)Cc1ccccc1-2` [2-acetamidofluorene] the GSA genotoxicity result [2] was “negative”.

For `CN/C(=N/CCSCc1nc[nH]c1C)NC#N` [cimetidine], the “corresponding data from other tests” value [5] is given as “no corresponding positive data” and the GSA genotoxicity result [2] is given as “positive”.

In the case of `OO` [HYDROGEN PEROXIDE], the “SOS LUX ASSAY (M), LEC” value [8] is given as 5.9e-05 M and the “GSA (M)” value ([2]; Saccharomyces cerevisiae) is given as 0.002 M.

In the case of `CO` [Methanol], the “Maximum Concentration (% v/v)” value [6] is reported as 2 % v/v.

In the case of `CC[n+]1c(-c2ccccc2)c2cc(N)ccc2c2ccc(N)cc21` [ethidium bromide], the Ames test result [3, 9] is listed as “positive”.

For proflavin hemisulfate, the Ames test result [3, 9] is listed as “positive” and the GSA genotoxicity result [2] is listed as “positive”.

For `Nc1nc[nH]n1` [3-amino-1,2,4-triazole], the “cancer data / carcinogenicity” value [4] is listed as “positive” and the GSA genotoxicity result [2] is listed as “positive”.

For `NC(N)=S` [thiourea], the Ames test result [3] is given as “not detectable” and the “cancer data / carcinogenicity” value [4] is given as “carcinogens”.

For `C1CCOC1` [Tetrahydrofuran], the “Maximum Concentration (% v/v)” value [6] was 2 % v/v.

In the case of `[N-]=[N+]=[N-]` [SODIUM AZIDE], the “SOS UMUC ASSAY (M), LEC” value [1] is listed as 0.0054 M and the “GSA (M)” value ([2]; Saccharomyces cerevisiae) is listed as 1e-05 M.

With `O=Cc1ccccc1` [Benzaldehyde] the GSA cytotoxicity result ([6]; GenT01 yeast, overnight at 25° C.) was “cytotoxic”.
